The record followed here is US20040052754A1, “Complexes of phosphate derivatives” (priority 2000, published 2004).

Molecules are shown by their SMILES.

The nature of series [1]: Vapour pressure osmometry (dissociation in water). It is filed as physicochemical. The settings on record: arbitrary scale. An excerpt:
A vapour pressure osmometer was used to investigate the dissociation of the di-sodium alpha tocopheryl phosphate N-lauryl imino dipropionate complex by comparing the lowering of the equilibrium temperature to give an identical partial pressure of water vapour around a drop of pure water versus various solutions as an indication of the relative moles of solute.
N-lauryl imino dipropionate alone gives three ions and at 0.05M the effect was 38 units. If the complex was readily dissociated, then the additional tocopheryl phosphate would be expected to increase the effect in the ratio 3:5 by the addition of the charged amino group as a cation and tocopheryl hydrogen phosphate anion.

Series [2] deals with Human cadaver skin. Briefly: In vitro human skin penetration study. It is filed as in vitro ADME. The following applies: analyte tocopheryl acetate. As to the method:
DSS was similar in TP and […] content, however, unlike TPC, DSS existed as the mixed sodium salts. A slurry of 6.25 w/w % of 80% DSS in 93.75 w/w % of the 95/5-water/ethanol mixture iwa prepared. Tocopheryl acetate was obtained from Roche/BASF. 5.0 w/w % of TA was dispersed in 95.0 w/w % of 95/5 water/ethanol mixture. The test formulations were evaluated in in vitro human skin penetration studies. […] The tests were conducted by […] International (San Diego, Calif.). Human cadaver skin was obtained and prepared. […] Receptor solutions were collected over 48 hours at pre-selected time intervals. After 48 hours the skin surface was washed with isopropyl alcohol, and the skin was collected and split into epidermis and dermis. The skin sections were extracted with isopropyl alcohol.

`[Cl-].[Na+]` [sodium chloride]: in series [1] (0.1M in water), the Osmometer effect is 29 unit.
Consider `CC(=O)Oc1c(C)c(C)c2c(c1C)CCC(C)(CCC[C@H](C)CCC[C@H](C)CCCC(C)C)O2` (stereo partly drawn) [TA, Tocopheryl acetate], for which the “Dermis/Epidermis Ratio, Tocopheryl Acetate” value in series [2] (48 hours) stood at 0.20. Besides, in series [2] (dermis after 48 hours, 5 μL/cm^2 topical dose), the “Percent distribution recovered: Tocopheryl Acetate, Dermis” value came out at 1.39 wt/wt %. In addition, the “Percent distribution recovered: Tocopheryl Acetate, Epidermis” value in series [2] (epidermis after 48 hours, 5 μL/cm^2 topical dose) stood at 7.13 wt/wt %. In addition, the “Percent distribution recovered: Tocopheryl Acetate, Surface Wash” value in series [2] (surface wash after 48 hours, 5 μL/cm^2 topical dose) was 91.48 wt/wt %.
With `CCCCCCCCCCCCN(CCC(=O)O)CCC(=O)O` [N-lauryl imino dipropionate], the Osmometer effect in series [1] (0.05M in water) was 38 units.
